Test results as given in patent US20230348369A1 (Cytokinetics, Inc., priority 2020, published 2023).
Like-named read-outs stand apart in the source and are kept apart here.

Legend:
[1] = biological target: human NAMPT (Homo sapiens, UniProt P43490); assay: Human recombinant enzyme assay (NMN fluorescence biochemical assay, activation of NAMPT)
In short: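 NMN production is detected fluorometrically (Ex 355/Em 460 nm) 40 min after acetophenone, KOH and formic acid derivatization. Reactions ran 60 min at ambient temperature: 6 nM human NAMPT, nicotinamide 150 μM, PRPP 20 μM, ATP 2.5 mM, buffered at pH 7.2 with 50 mM HEPES plus DTT, CHAPS, NaCl and 100 mM MgCl2.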

[2] = biological target: T1, endogenous NAMPT (Homo sapiens, UniProt P43490); assay: Cellular NAD+ modulation assay in neuroblastoma SH-SY5Y cells; assay type: cell-based
T1 construct: stimulate the endogenous NAMPT in a native cellular environment; endogenous in cells; host or cells: SH-SY5Y neuroblastoma cells
T1 sequence (P43490 whole entry): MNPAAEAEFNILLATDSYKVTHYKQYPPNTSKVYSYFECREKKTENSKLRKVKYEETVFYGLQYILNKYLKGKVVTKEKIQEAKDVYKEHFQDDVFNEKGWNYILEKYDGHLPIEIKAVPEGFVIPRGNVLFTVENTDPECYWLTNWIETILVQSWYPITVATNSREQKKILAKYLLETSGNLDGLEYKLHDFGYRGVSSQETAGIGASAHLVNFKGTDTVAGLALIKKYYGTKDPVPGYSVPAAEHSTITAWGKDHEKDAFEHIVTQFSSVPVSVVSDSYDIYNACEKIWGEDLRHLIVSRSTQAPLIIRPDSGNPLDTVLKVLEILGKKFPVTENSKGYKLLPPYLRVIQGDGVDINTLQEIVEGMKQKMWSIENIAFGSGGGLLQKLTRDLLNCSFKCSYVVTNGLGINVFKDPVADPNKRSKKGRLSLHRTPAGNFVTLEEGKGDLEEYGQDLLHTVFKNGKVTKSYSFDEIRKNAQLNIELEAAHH
Method: The compounds described herein were also assayed for their ability to stimulate the endogenous NAMPT in a native cellular environment in the cellular NAD+ modulation assay, which measures the ability of the compound to modulate cellular NAD levels. Increased levels of NAD are expected by compounds that permeate the cells and activate the catalytic activity of the endogenous NAMPT.
Neuroblastoma SH-SY5Y cells were grown in 1:1 mixture of Eagle's Minimum Essential Medium and F12 Medium, along with 10% fetal bovine serum, in a humidified incubator with an atmosphere of 95% air and 5% CO2 at 37° C. The assays were initiated by plating 20 μL of SH-SY5Y cells in culture medium with 0.1% fetal bovine serum, at a density of 5000 cells per well to a 384-well Corning™ BioCoat™ Poly-D-Lysine Multiwell Plates. The plates were incubated in the 37° C. incubators for a period of 5 hours. Compounds in DMSO were added to the plates in a volume of 120 nL using the Labcyte Echo Liquid Handlers. […] The plates are then incubated for 40 hours. 30 μL of a readout-solution containing 0.2 U/mL Diaphorase enzyme, 40 uM resazurin, 10 uM FMN, 0.8 U/mL Alcohol dehydrogenase, 3% ethanol, 0.4 mg/mL bovine serum albumin, 0.2% Triton X-100 in 100 mM Tris-HCl, 30 mM EDTA, pH 8.4. The plates were read for fluorescence (Excitation/Emission=540 nm/590 nm) using an EnVision plate reader after 60 mins of incubation at ambient temperature.

[3] = Table A, human recombinant NAMPT, NMN formation, 60 min
[4] = Table A, human recombinant NAMPT, NMN formation, 60 min, read-out: EC50 Human
[5] = Table B, SH-SY5Y cells, cellular NAD levels, doxorubicin, 40 hours
[6] = Table B, SH-SY5Y cells, cellular NAD levels, doxorubicin, 40 hours, read-out: EC50

Chain of human NAMPT (P43490 whole entry): as above

| Compound | AC1.4 Human [1, 3] [µM] | EC50 [1, 4] [µM] | AC0.3 [2, 5] [µM] | EC50 [2, 6] [µM] | EC50 [1] [µM] | EC50 [2] [µM] |
| --- | --- | --- | --- | --- | --- | --- |
| COc1ccc(CNC(=O)NC2CC3(C2)CC(C(=O)N2CCCc4cnccc42)C3)cc1 (centres unmarked) [Compound 90, 1-(4-methoxybenzyl)-3-(6-(1,2,3,4-tetrahydro-1,6-naphthyridine-1-carbonyl)spiro[3.3]heptan-2-yl)urea] | 0.3 | 5.1 | 0.9 | 0.8 | – | – |
| CC(C)(O)CN1CCN(C(=O)C2CC3(CC(NC(=O)NCc4ccc(Cl)cc4)C3)C2)CC1 (centres unmarked) [Compound 110] | 0.7 | – | 0.5 | – | 3.9 | 0.3 |
| O=C(NCc1ccc(Cl)cc1)NC1CC2(C1)CC(NS(=O)(=O)Cc1ccccc1Cl)C2 (centres unmarked) [Compound 120, N-(6-(3-(4-chlorobenzyl)ureido)spiro[3.3]heptan-2-yl)-1-(2-chlorophenyl)methanesulfonamide] | 0.5 | 2.6 | 0.2 | 0.3 | – | – |
| O=C(NCc1ccc(Cl)cc1)NC1CC2(C1)CC(NS(=O)(=O)c1ccccc1)C2 (centres unmarked) [Compound 121] | 1.5 | – | 0.6 | – | 5.7 | 1.2 |
| COc1ccc(CNC(=O)NC2CC3(CC(Cn4ncc5ccccc54)C3)C2)cc1 (centres unmarked) [Compound 134] | 0.6 | 7.2 | 8.0 | 12.7 | – | – |
| COc1ccc(CNC(=O)NC2CC3(C2)CN(C(=O)c2ccc(C)nc2)C3)cc1 [Compound 138, 1-(4-methoxybenzyl)-3-(2-(6-methylnicotinoyl)-2-azaspiro[3.3]heptan-6-yl)urea] | 5.7 | 43.2 | 9.1 | 10.1 | – | – |
| COc1ccc(CNC(=O)NC2CC3(C2)CN(C(=O)c2ccnc(C)c2)C3)cc1 [Compound 140, 1-(4-methoxybenzyl)-3-(2-(2-methylisonicotinoyl)-2-azaspiro[3.3]heptan-6-yl)urea] | 7.5 | 52.5 | 8.2 | 6.3 | – | – |
| COc1ccc(CNC(=O)NC2CC3(C2)CN(C(=O)c2ccc(C)cc2)C3)cc1 [Compound 145, 1-(4-methoxybenzyl)-3-(2-(4-methylbenzoyl)-2-azaspiro[3.3]heptan-6-yl)urea] | 1.4 | 45.3 | 1.1 | 3.1 | – | – |
| COc1ccc(CNC(=O)NCCCCCOc2ccccc2)cc1 [Compound 149, 1-(4-methoxybenzyl)-3-(5-phenoxypentyl)urea] | 0.3 | 4.9 | 0.6 | 1.1 | – | – |
| Cc1cccc(C(=O)N2CC[C@]3(C2)C[C@@H](NC(=O)NCc2ccc(Cl)cc2)C3)c1 [Compound 161, 1-(4-chlorobenzyl)-3-((2r,4s)-6-(3-methylbenzoyl)-6-azaspiro[3.4]octan-2-yl)urea] | 7.5 | 15.7 | 0.3 | 0.8 | – | – |
| Cc1ccccc1C(=O)N1CC[C@]2(C1)C[C@@H](NC(=O)NCc1ccc(Cl)cc1)C2 [Compound 162, 1-(4-chlorobenzyl)-3-((2r,4s)-6-(2-methylbenzoyl)-6-azaspiro[3.4]octan-2-yl)urea] | 6.2 | 21.7 | 0.7 | 1 | – | – |
| Cc1ccc(C(=O)N2CC[C@]3(C2)C[C@H](NC(=O)NCc2ccc(Cl)cc2)C3)cc1 [Compound 164, 1-(4-chlorobenzyl)-3-((2s,4r)-6-(4-methylbenzoyl)-6-azaspiro[3.4]octan-2-yl)urea] | 12.6 | 40.1 | 11.6 | 12.9 | – | – |
| O=C(NCCOCCOc1ccccc1)NCc1ccc(Cl)cc1 [Compound 196, 1-(4-chlorobenzyl)-3-(2-(2-phenoxyethoxy)ethyl)urea] | 3.7 | 25.5 | 1.0 | 3.3 | – | – |
| Cc1cccc(N2CC[C@]3(C2)C[C@H](NC(=O)NCc2ccc(Cl)cc2)C3)n1 [Compound 199, 1-(4-chlorobenzyl)-3-((2s,4r)-6-(6-methylpyridin-2-yl)-6-azaspiro[3.4]octan-2-yl)urea] | 10.6 | 42.2 | 2.0 | – | – | – |
| CN(C(=O)[C@H]1C[C@@]2(C[C@H](NC(=O)NCc3ccc(Cl)cc3)C2)C1)C1CCOC1 (stereo partly drawn) [Compound 202, (2S,4s,6S)-6-(3-(4-chlorobenzyl)ureido)-N-methyl-N-((R)-tetrahydrofuran-3-yl)spiro[3.3]heptane-2-carboxamide] | 0.9 | 2.2 | 0.5 | 0.6 | – | – |
| Cc1ncccc1C(=O)NC1CC2(CC(NC(=O)NCc3ccc(Cl)cc3)C2)C1 (centres unmarked) [Compound 203, N-(6-(3-(4-chlorobenzyl)ureido)spiro[3.3]heptan-2-yl)-2-methylnicotinamide] | 8.2 | 34.3 | 8.9 | 10 | – | – |
| Cc1ccc(C(=O)N2CC3(CC(NC(=O)NCc4ccc(Cl)cc4)C3)C2)cc1 [Compound 206, 1-(4-chlorobenzyl)-3-(2-(4-methylbenzoyl)-2-azaspiro[3.3]heptan-6-yl)urea] | 2.2 | 4.3 | 0.2 | 0.5 | – | – |
| Cc1ccc(C(=O)N2CC3(CC(NC(=O)NCc4ccncc4)C3)C2)cc1 [Compound 210, 1-(2-(4-methylbenzoyl)-2-azaspiro[3.3]heptan-6-yl)-3-(pyridin-4-ylmethyl)urea] | 1.9 | 49.9 | 9.7 | 9 | – | – |
| Cc1ccc(C(=O)N2CC3(CC(NC(=O)NCc4ccc(C(N)=O)cc4)C3)C2)cc1 [Compound 211, 4-((3-(2-(4-methylbenzoyl)-2-azaspiro[3.3]heptan-6-yl)ureido)methyl)benzamide] | 0.5 | 27.8 | >20.1 | – | – | – |
| N#Cc1ccccc1C(=O)NC1CC2(CC(NC(=O)NCc3ccc(Cl)cc3)C2)C1 (centres unmarked) [Compound 212, N-(6-(3-(4-chlorobenzyl)ureido)spiro[3.3]heptan-2-yl)-2-cyanobenzamide] | 7.2 | – | 0.3 | – | 6 | 0.1 |
| Cc1ccc(C(=O)N2CC3(CC(NC(=O)NCc4ccc(=O)[nH]c4)C3)C2)cc1 [Compound 214, 1-(2-(4-methylbenzoyl)-2-azaspiro[3.3]heptan-6-yl)-3-((6-oxo-1,6-dihydropyridin-3-yl)methyl)urea] | 10.5 | 36.7 | >20.1 | – | – | – |
| COc1ccc(CNC(=O)N[C@H]2C[C@]3(C2)C[C@H](C(=O)N2CCCc4ccccc42)C3)cc1 (some centres unmarked) [Compound 229, 1-(4-methoxy-benzyl)-3-(6-(1,2,3,4-tetrahydro-quinoline-1-carbonyl)spiro[3.3]heptan-2-yl)urea] | – | 1.2 | – | 0.2 | – | – |
| Cc1ccc(C(=O)NC[C@H]2C[C@]3(C2)C[C@@H](NC(=O)NCc2ccc(Cl)cc2)C3)cn1 (some centres unmarked) [Compound 249, N-((6-(3-(4-chlorobenzyl)ureido)spiro[3.3]heptan-2-yl)methyl)-6-methyl-nicotinamide] | – | 2.7 | – | 0.9 | – | – |
| O=C(NCCCCC(=O)N1CCCc2ccccc21)NCc1ccc(Cl)cc1 [Compound 256, 1-(4-chlorobenzyl)-3-(5-(3,4-dihydroquinolin-1(2H)-yl)-5-oxopentyl)urea] | 1.0 | 2 | 0.3 | 0.3 | – | – |
| CN(C(=O)CCCCCNC(=O)NCc1ccc(Cl)cc1)c1ccccc1 [Compound 268, 6-(3-(4-chlorobenzyl)ureido)-N-methyl-N-phenylhexanamide] | 0.3 | 0.5 | 0.1 | 0.1 | – | – |
| CN(C(=O)CCCCCNC(=O)NCc1cn[nH]c1)c1ccccc1F [Compound 287, 6-(3-((1H-pyrazol-4-yl)methyl)ureido)-N-(2-fluorophenyl)-N-methylhexanamide] | 0.1 | 4.4 | 0.3 | 1 | – | – |
| CN(C(=O)CCCCCNC(=O)NCc1cnco1)c1ccccc1F [Compound 288, N-(2-fluorophenyl)-N-methyl-6-(3-(oxazol-5-ylmethyl)ureido)hexanamide] | 0.3 | 3.7 | 0.3 | 0.8 | – | – |
